Reference: publication PMC9475448, “What a difference a methylene makes: replacing Glu with Asp or Aad in the Lys-urea-Glu pharmacophore of PSMA-targeting radioligands to reduce kidney and salivary gland uptake” (Theranostics, 2022)

Tests used:
[1] = tested on: LNCaP tumor-bearing mice; test: Ex vivo biodistribution of 177Lu-labeled ligands in LNCaP tumor-bearing NRG mice
[2] = tested on: LNCaP tumor-bearing mice; test: Radioligand therapy study in LNCaP tumor-bearing NRG mice; details: 37 MBq injected
[3] = tested on: LNCaP tumor and major mouse organs/tissues; test: Radiation dosimetry calculation with OLINDA software from biodistribution data; details: 25-g mouse
Excerpt: The biodistribution data (available in the Supplemental Table s 5- 6) were used to determine the kinetics input values required by OLINDA. First, each of the values was decayed to its corresponding time point (the values on the table are shown at injection time). Then the different time-points of the uptake data (%IA/g) for each organ were fitted to both mono- exponential ( ) and bi-exponential ( ) functions using in-house software developed in Python. The best fit was selected based on maximizing the coefficient of determination (R2) of the fit and minimizing the residuals. The areas under the curves were analytically calculated based on the parameters obtained from the best fit of each organ and this provided the kinetic input values required by OLINDA.
In the mouse case, the adrenals, blood, fat, and muscle are not modeled in the phantom. These organs were grouped together and included in what OLINDA calls the remainder of the body .
Lastly, the numbers of decays in the tumors were also calculated based on the biodistribution data of the mice and the values were inputted into the sphere model available in OLINDA.

[4] = tested on: LNCaP tumor-bearing mice; test: Longitudinal SPECT/CT imaging of 177Lu-labeled ligands; format: in vivo
Method: SPECT/CT imaging experiments were conducted using the MILabs (Utrecht, The Netherlands) U-SPECT-II/CT scanner. Each tumor-bearing mouse (n = 1-2 was injected with ∼37 MBq (50-250 pmol) of ^177Lu-labeled compound through a lateral caudal tail vein. The mice were imaged at 1, 4, 24, 72, and 120 h after injection. At each time point, a 5-min CT scan was conducted first for anatomical reference followed by 2 × 30-min static emission scans acquired in list mode.

In the case of [^177Lu]Lu-PSMA-617, the Tumor uptake ([1]; 24 h post-injection) is reported as 13.18 ± 3.151 %IA/g, the “Tumor:Blood uptake ratio” value ([1]; 24 h post-injection) is reported as 4045 ± 1693 and the “Tumor:Kidney uptake ratio” value ([1]; 24 h post-injection) is reported as 21.6 ± 8.83. The “Tumor:Muscle uptake ratio” value ([1]; 24 h post-injection) was 2905 ± 453, the “Tumor:Salivary gland uptake ratio” value ([1]; 24 h post-injection) was 371 ± 129 and the Adrenal glands uptake ([1]; 72 h post-injection) was 0.007 ± 0.004 %IA/g. For the same substance, the Blood uptake ([1]; 72 h post-injection) was 0.002 ± 0.001 %IA/g, the “Blood:Salivary gland uptake ratio” value ([1]; 72 h post-injection) was 0.19 ± 0.08 and the Bone uptake ([1]; 72 h post-injection) was 0.006 ± 0.003 %IA/g. The Brain uptake ([1]; 72 h post-injection) was 0.008 ± 0.002 %IA/g, the Fat uptake ([1]; 72 h post-injection) was 0.006 ± 0.012 %IA/g and the Heart uptake ([1]; 72 h post-injection) was 0.004 ± 0.001 %IA/g. It also gave an Intestines uptake ([1]; 72 h post-injection) of 0.062 ± 0.080 %IA/g, a Kidneys uptake ([1]; 72 h post-injection) of 0.181 ± 0.046 %IA/g and a Lacrimal glands uptake ([1]; 72 h post-injection) of 0.023 ± 0.009 %IA/g. It also gave a Liver uptake ([1]; 72 h post-injection) of 0.021 ± 0.004 %IA/g, a Lungs uptake ([1]; 72 h post-injection) of 0.011 ± 0.002 %IA/g and a Muscle uptake ([1]; 72 h post-injection) of 0.004 ± 0.004 %IA/g. It also gave a Pancreas uptake ([1]; 72 h post-injection) of 0.003 ± 0.001 %IA/g, a Salivary glands uptake ([1]; 72 h post-injection) of 0.012 ± 0.003 %IA/g and a Spleen uptake ([1]; 72 h post-injection) of 0.016 ± 0.005 %IA/g. It also gave a Stomach uptake ([1]; 72 h post-injection) of 0.096 ± 0.155 %IA/g, a Testes uptake ([1]; 72 h post-injection) of 0.014 ± 0.012 %IA/g and a Thyroid uptake ([1]; 72 h post-injection) of 0.009 ± 0.002 %IA/g. The Tumor uptake ([1]; 72 h post-injection) was 11.0±2.12 %IA/g, the “Tumor:Blood uptake ratio” value ([1]; 72 h post-injection) was 5784 ± 1756 and the “Tumor:Kidney uptake ratio” value ([1]; 72 h post-injection) was 62.4 ± 11.1. The “Tumor:Muscle uptake ratio” value ([1]; 72 h post-injection) was 4712 ± 3587, the “Tumor:Salivary gland uptake ratio” value ([1]; 72 h post-injection) was 969 ± 241 and the Tumor uptake ([1]; 72 h post-injection, listed as [177Lu]Lu-PSMA-617) was 10.97 ± 2.122 %IA/g. For the same substance, the Adrenal glands uptake ([1]; 120 h post-injection) was 0.005 ± 0.008 %IA/g, the Blood uptake ([1]; 120 h post-injection) was 0.002 ± 0.001 %IA/g and the “Blood:Salivary gland uptake ratio” value ([1]; 120 h post-injection) was 0.42 ± 0.19. For the same substance, the Bone uptake ([1]; 120 h post-injection) was 0.003 ± 0.004 %IA/g, the Brain uptake ([1]; 120 h post-injection) was 0.007 ± 0.001 %IA/g and the Fat uptake ([1]; 120 h post-injection) was 0.002 ± 0.001 %IA/g. The Heart uptake ([1]; 120 h post-injection) was 0.002 ± 0.001 %IA/g, the Intestines uptake ([1]; 120 h post-injection) was 0.012 ± 0.011 %IA/g and the Kidneys uptake ([1]; 120 h post-injection) was 0.111 ± 0.054 %IA/g. For the same substance, the Lacrimal glands uptake ([1]; 120 h post-injection) was 0.021 ± 0.010 %IA/g, the Liver uptake ([1]; 120 h post-injection) was 0.016 ± 0.004 %IA/g and the Lungs uptake ([1]; 120 h post-injection) was 0.006 ± 0.001 %IA/g. The Muscle uptake ([1]; 120 h post-injection) was 0.002 ± 0.002 %IA/g, the Pancreas uptake ([1]; 120 h post-injection) was 0.001 ± 0.001 %IA/g and the Salivary glands uptake ([1]; 120 h post-injection) was 0.005 ± 0.002 %IA/g. The Spleen uptake ([1]; 120 h post-injection) was 0.013 ± 0.004 %IA/g, the Stomach uptake ([1]; 120 h post-injection) was 0.013 ± 0.013 %IA/g and the Testes uptake ([1]; 120 h post-injection) was 0.006 ± 0.002 %IA/g. The Thyroid uptake ([1]; 120 h post-injection) was 0.005 ± 0.001 %IA/g, the Tumor uptake ([1]; 120 h post-injection) was 12.3±5.52 %IA/g and the “Tumor:Blood uptake ratio” value ([1]; 120 h post-injection) was 8895 ± 4881. The “Tumor:Kidney uptake ratio” value ([1]; 120 h post-injection) was 126 ± 76.0, the “Tumor:Muscle uptake ratio” value ([1]; 120 h post-injection) was 11627 ± 7865 and the “Tumor:Salivary gland uptake ratio” value ([1]; 120 h post-injection) was 3324 ± 2257. For the same substance, the Tumor uptake ([1]; 120 h post-injection, listed as [177Lu]Lu-PSMA-617) was 12.25 ± 5.519 %IA/g, the Median survival [2] was 63 days and the Kinetics value ([3]; source organ Brain) was 6.64E-03 MBq-h/MBq. It also gave a Kinetics value ([3]; source organ Cortical bone) of 8.28E-03 MBq-h/MBq, a Kinetics value ([3]; source organ Heart contents) of 3.28E-03 MBq-h/MBq and a Kinetics value ([3]; source organ Kidneys) of 8.23E-01 MBq-h/MBq. The Kinetics value ([3]; source organ Large intestine) was 8.80E-03 MBq-h/MBq, the Kinetics value ([3]; source organ Liver) was 6.38E-02 MBq-h/MBq and the Kinetics value ([3]; source organ Lungs) was 4.85E-03 MBq-h/MBq. For the same substance, the Kinetics value ([3]; source organ Pancreas) was 4.76E-03 MBq-h/MBq, the Kinetics value ([3]; source organ Remainder of the body) was 1.68E-01 MBq-h/MBq and the Kinetics value ([3]; source organ Small intestine) was 2.63E-02 MBq-h/MBq. It also gave a Kinetics value ([3]; source organ Spleen) of 1.41E-02 MBq-h/MBq, a Kinetics value ([3]; source organ Stomach) of 2.34E-04 MBq-h/MBq and a Kinetics value ([3]; source organ Testes) of 4.23E-03 MBq-h/MBq. The Kinetics value ([3]; source organ Thyroid) was 4.01E-04 MBq-h/MBq, the Kinetics value ([3]; source organ Urinary bladder contents) was 8.04E-01 MBq-h/MBq and the “Excretion pathway (SPECT imaging)” value ([4]; mouse, in vivo) was “excreted mainly via the renal pathway”. The “Tumor size change in SPECT/CT images” value ([4]; ~37 MBq injected) was “tumors shrank from Day 1 to Day 5”.
